Data published in patent US12161694B2, “Methods and compositions for regulating innate lymphoid cell inflammatory responses” (The Broad Institute, Inc., priority 2017, dated 2024).
Entries after “also recorded” stand apart in the source; their conditions may differ. Where no end group is shown, it is not given here.

System: lung-resident ILCs
Test: Droplet-based scRNA-seq of lung-resident ILCs after in vivo treatment
Set-up: species or system mouse
Settings: PBS, NMU, IL-25, combination
Description: Mice and in vivo ILC activation. C57Bl/6J mice were purchased from the Jackson Laboratory. Nmur1-LacZ reporter mice with a LacZ cassette knocked into the Nmur1 locus were rederived from Nmur1^tm1.1(KOMP)Vleg sperm obtained from the trans-NIH Knock-Out Mouse Project (KOMP) Repository. Mice were housed under specific-pathogen-free conditions. For experiments, mice were matched for sex and age, and most mice were 6-10 weeks old. Where indicated, mice were anesthetized with Isoflurane and treated intranasally with the indicated stimuli (500 ng IL-25, 500 ng IL-33, or 20 μg Neuromedin U) daily for three consecutive days. The total administered volume was 20 μl for all conditions. Mice were randomly assigned to treatment groups after matching for sex and age. […]
Fluorescence-activated cell sorting of innate lymphoid cells. […]
Analysis of droplet-based scRNA-Seq data: Initial QC. Gene counts were obtained by aligning reads to the mm10 genome using CellRanger software (10× Genomics), with the genome reannotated at the 3′ end of Nmur1 (see main text). […]
Analysis of droplet-based scRNA-Seq samples: Signature scores. Applicants calculated signature scores as the log of the geometric mean of the TPX values for the genes in the signature. […] Then the signature score for that cell is calculated as log(IIg(xg+1)^1/m) which is equivalent to the arithmetic mean of the log TPX values. […]

## Neuromedin U (FRVDEEFQSPFASQSRGYFLFRPRN-NH2; listed as Homo sapiens) [NMU, neuropeptide ligand of Nmur1 (US Biological)]
  transcriptional profiles of ILCs (tSNE localization): largely localized with those from control mice; also recorded: transcriptionally similar to control ILCs
